In ChEMBL document CHEMBL5126595, “Identification and anti-tumor evaluation of 3-acyl-indol-based 2,4-diarylaminopyrimidine analogues as potent ALK inhibitors capable of overcoming drug-resistant mutants” (Eur J Med Chem, 2022):
Calls of active or inactive are those of the source. No cut-off for these calls is given here.

What was measured:
[1] = tested on: NCI-H2228; assay: Induction of apoptosis in human NCI-H2228 cells assessed as viable cells at 50 nM incubated for 48 hrs by AnnexinV-FITC/propidium iodide staining based flow cytometry analysis (reference value: 92.3 %); assay type: functional; details: read-out: Activity
[2] = tested on: NCI-H2228; assay: Induction of apoptosis in human NCI-H2228 cells assessed as nuclei fragmentation by measuring brilliant blue fluorescence at 25 to 100 nM incubated for 48 hrs by Hoechst 33342 staining based fluorescence microscopic analysis; assay type: functional, cell-based; details: dose 25-100 nM
[3] = tested on: NCI-H2228; assay: Induction of apoptosis in human NCI-H2228 cells assessed as chromatin condensation by measuring brilliant blue fluorescence at 25 to 100 nM incubated for 48 hrs by Hoechst 33342 staining based fluorescence microscopic analysis; assay type: functional, cell-based; details: dose 25-100 nM
[4] = target: ALK tyrosine kinase receptor (Homo sapiens, UniProt Q9UM73); assay: Inhibition of ALK phosphorylation in human NCI-H2228 cells measured after 24 hrs by Western blot analysis; assay type: cell-based; details: dose 25-100 nM, DDE = dose-dependent effect
[5] = Antiproliferative activity against human HELF cells assessed as inhibition of cell growth incubated for 72 hrs by MTT assay; assay type: toxicity, cell-based
[6] = tested on: PC-3; assay: Antiproliferative activity against human PC-3 cells assessed as inhibition of cell growth incubated for 72 hrs by MTT assay; assay type: functional, cell-based; details: PC-3, 72 h
[7] = tested on: NCI-H2228; assay: Induction of cell cycle arrest in human NCI-H2228 cells assessed as increase in G1 phase cells at 100 nM incubated for 48 hrs by PI/RNase staining based flow cytometry analysis (reference value: 49.72 %); assay type: functional
[8] = tested on: KARPAS-299; assay: Antiproliferative activity against NPM-ALK positive human KARPAS-299 cells assessed as inhibition of cell growth incubated for 72 hrs by MTT assay; assay type: functional, cell-based; details: KARPAS-299, 72 h
[9] = tested on: NCI-H2228; assay: Inhibition of colony formation in human NCI-H2228 cells assessed as reduction in colony area incubated for 3 day by crystal violet staining based assay; assay type: functional, cell-based; details: dose 25-100 nM, DDE = dose-dependent effect
[10] = tested on: NCI-H2228; assay: Induction of apoptosis in human NCI-H2228 cells assessed as necrotic cells at 50 nM incubated for 48 hrs by AnnexinV-FITC/propidium iodide staining based flow cytometry analysis (reference value: 0.55 %); assay type: functional
[11] = tested on: NCI-H2228; assay: Antiproliferative activity against EML4-ALK positive human NCI-H2228 cells assessed as inhibition of cell growth incubated for 72 hrs by MTT assay; assay type: functional, cell-based; details: NCI-H2228, 72 h
[12] = tested on: NCI-H2228; assay: Induction of cell cycle arrest in human NCI-H2228 cells assessed as decrease in S phase cells at 50 nM incubated for 48 hrs by PI/RNase staining based flow cytometry analysis (reference value: 34.90 %); assay type: functional; parameters: scale not given: the % may be the effect or the level left
[13] = tested on: NCI-H3122; assay: Antiproliferative activity against EML4-ALK positive human NC-H3122 cells assessed as inhibition of cell growth incubated for 72 hrs by MTT assay; assay type: functional, cell-based; details: NCI-H3122, 72 h

Sequence of ALK tyrosine kinase receptor (Q9UM73 19-1620 limits assumed): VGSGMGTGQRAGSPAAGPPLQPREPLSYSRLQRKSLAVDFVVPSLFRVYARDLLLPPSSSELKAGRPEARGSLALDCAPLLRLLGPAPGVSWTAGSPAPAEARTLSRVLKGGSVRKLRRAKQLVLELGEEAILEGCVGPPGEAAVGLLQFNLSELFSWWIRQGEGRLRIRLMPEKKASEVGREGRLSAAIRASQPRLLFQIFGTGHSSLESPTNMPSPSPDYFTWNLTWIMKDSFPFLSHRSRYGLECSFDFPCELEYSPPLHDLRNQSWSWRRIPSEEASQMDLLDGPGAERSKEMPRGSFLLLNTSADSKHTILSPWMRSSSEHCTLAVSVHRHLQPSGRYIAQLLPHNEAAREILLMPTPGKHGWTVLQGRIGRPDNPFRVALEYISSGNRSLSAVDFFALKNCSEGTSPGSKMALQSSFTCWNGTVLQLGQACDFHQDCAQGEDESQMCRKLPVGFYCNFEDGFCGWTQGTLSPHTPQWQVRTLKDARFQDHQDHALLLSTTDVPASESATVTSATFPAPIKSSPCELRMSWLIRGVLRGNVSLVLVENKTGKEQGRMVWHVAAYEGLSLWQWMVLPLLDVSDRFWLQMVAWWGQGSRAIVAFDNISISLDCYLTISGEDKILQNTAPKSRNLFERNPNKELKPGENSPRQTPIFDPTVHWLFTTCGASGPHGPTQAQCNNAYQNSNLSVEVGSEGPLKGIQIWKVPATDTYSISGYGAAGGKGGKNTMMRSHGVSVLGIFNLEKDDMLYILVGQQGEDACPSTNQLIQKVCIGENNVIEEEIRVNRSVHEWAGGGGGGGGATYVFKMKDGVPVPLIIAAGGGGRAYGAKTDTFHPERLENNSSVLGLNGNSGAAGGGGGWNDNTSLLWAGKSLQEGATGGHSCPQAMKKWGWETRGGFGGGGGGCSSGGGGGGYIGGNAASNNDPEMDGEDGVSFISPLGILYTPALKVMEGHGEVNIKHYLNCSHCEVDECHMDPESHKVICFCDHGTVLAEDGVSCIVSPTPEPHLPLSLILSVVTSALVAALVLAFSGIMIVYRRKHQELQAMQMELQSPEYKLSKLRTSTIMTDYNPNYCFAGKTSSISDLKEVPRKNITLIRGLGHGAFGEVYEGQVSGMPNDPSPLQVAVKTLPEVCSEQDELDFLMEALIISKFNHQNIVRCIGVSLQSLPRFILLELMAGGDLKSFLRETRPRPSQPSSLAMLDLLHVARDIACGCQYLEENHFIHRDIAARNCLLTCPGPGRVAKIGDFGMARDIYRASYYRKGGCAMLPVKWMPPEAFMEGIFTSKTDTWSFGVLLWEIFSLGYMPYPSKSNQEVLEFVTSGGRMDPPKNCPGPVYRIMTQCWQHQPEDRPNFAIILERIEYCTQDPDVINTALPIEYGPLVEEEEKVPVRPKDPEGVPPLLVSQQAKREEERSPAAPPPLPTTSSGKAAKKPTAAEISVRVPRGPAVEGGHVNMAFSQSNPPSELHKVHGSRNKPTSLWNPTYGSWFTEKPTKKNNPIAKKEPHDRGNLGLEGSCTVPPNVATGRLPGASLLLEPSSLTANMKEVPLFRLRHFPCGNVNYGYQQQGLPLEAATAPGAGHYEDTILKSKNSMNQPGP

CNC(=O)c1ccccc1Nc1nc(Nc2ccc3c(C(=O)N(C)C)c(C)[nH]c3c2)ncc1Cl
viability at 0.05 µM [1]: 74.4% | Activity [2]: Active | Activity [3]: Active | inhibition [4]: Dde | IC50 at 72 h [5]: > 10000 nM | IC50 [6]: 1380 nM | Activity [7]: 58.51% | IC50 [8]: 11 nM | inhibition [9]: Dde | Activity [10]: 1.66% | IC50 [11]: 37 nM | Activity [12]: 32.28% | IC50 [13]: 27 nM
